The target of one assay is Melanocortin receptor 4 (Homo sapiens, UniProt P32245). Put plainly: Agonistic activity against human Melanocortin 4 receptor. The assay is classed as functional.
Assay [1] has as its target Melanocortin receptor (M1 and M4) (Homo sapiens) (UniProt P32245+Q01726). Put plainly: Ratio of EC50 of Melanocortin 4 receptor to that of Melanocortin 1 receptor. Type of assay: protein assay.
Assay [2] deals with Melanocyte-stimulating hormone receptor (Homo sapiens, UniProt Q01726). Put plainly: Agonistic activity against human Melanocortin 1 receptor. The assay is classed as functional.
Another assay deals with Melanocortin receptor 3 (Homo sapiens, UniProt P41968). The assay is described as follows: Agonistic activity against human Melanocortin 3 receptor. Type of assay: functional.
Assay [3] concerns the target Melanocortin receptor (M3 and M4) (Homo sapiens) (UniProt P32245+P41968). The assay is described as follows: Ratio of EC50 of Melanocortin 4 receptor to that of Melanocortin 3 receptor. The assay is classed as protein assay.

The structures appear in SMILES notation.

Chain of Melanocyte-stimulating hormone receptor (Q01726 whole entry): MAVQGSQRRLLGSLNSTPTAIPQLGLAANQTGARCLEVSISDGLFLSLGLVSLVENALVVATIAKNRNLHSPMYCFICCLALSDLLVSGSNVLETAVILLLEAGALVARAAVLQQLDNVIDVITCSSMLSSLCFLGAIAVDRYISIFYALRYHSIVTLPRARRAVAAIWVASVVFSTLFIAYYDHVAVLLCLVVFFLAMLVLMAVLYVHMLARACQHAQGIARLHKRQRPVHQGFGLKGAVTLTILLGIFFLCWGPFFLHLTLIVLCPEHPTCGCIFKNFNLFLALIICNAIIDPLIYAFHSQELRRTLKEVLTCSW
Chain of Melanocortin receptor 4 (P32245 whole entry): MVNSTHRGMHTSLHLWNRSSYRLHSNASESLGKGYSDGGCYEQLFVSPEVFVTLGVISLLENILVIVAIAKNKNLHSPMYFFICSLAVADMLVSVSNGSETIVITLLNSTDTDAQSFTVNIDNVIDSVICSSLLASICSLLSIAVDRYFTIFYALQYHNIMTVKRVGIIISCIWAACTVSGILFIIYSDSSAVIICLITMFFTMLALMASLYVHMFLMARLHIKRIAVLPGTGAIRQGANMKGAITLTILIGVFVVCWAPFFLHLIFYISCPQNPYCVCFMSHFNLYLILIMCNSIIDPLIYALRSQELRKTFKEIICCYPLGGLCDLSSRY
Chain of Melanocortin receptor 3 (P41968 whole entry): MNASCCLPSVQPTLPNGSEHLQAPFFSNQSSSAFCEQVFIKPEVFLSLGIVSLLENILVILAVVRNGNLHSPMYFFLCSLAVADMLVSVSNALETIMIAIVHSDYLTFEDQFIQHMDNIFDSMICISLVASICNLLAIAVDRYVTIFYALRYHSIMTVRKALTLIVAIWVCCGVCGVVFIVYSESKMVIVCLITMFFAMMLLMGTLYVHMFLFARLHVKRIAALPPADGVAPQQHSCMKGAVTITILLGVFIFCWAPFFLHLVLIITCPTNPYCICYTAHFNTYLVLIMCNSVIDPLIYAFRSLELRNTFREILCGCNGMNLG

In general, EC50 refers to the concentration at which the effect is half-maximal. Read a low EC50 as an effect from little substance. For `N=C(N)NCCC[C@H](NC(=O)C(Cc1ccccc1)NC(=O)[C@H](Cc1ccc(Cl)cc1)NC(=O)c1c(F)c(F)c(F)c(F)c1F)C(=O)N[C@@H](Cc1c[nH]c2ccccc12)C(N)=O` (stereo in doubt), the concentration for a half-maximal effect (EC50) on Melanocortin receptor 4 came out at 0.168 µM; in assay [2], 0.555 µM; at Melanocortin receptor 3, 1.34 µM. Also, the values for the Ratio in assay [1] and in assay [3] were 3 and 8, respectively.

On to `N=C(N)NCCC[C@H](NC(=O)C(Cc1ccccc1)NC(=O)[C@H](Cc1ccc(Cl)cc1)NC(=O)CO)C(=O)N[C@@H](Cc1c[nH]c2ccccc12)C(N)=O` (stereo in doubt), for which the EC50 turned out to be 0.114 µM on Melanocortin receptor 4, 0.499 µM in assay [2] and 1.45 µM on Melanocortin receptor 3. Besides, the Ratio is 4 in assay [1] and 13 in assay [3].

Turning to `N=C(N)NCCC[C@H](NC(=O)C(Cc1ccccc1)NC(=O)[C@H](Cc1ccc(Cl)cc1)NC(=O)C(N)=O)C(=O)N[C@@H](Cc1c[nH]c2ccccc12)C(N)=O` (stereo in doubt), the figures for the EC50 (at Melanocortin receptor 4; in assay [2]; on Melanocortin receptor 3) were 0.0313 µM, 0.349 µM and 0.164 µM, respectively. For the same compound, the values for the Ratio in assay [1] and in assay [3] were 11 and 5, respectively.

In the case of `N=C(N)NCCC[C@H](NC(=O)C(Cc1ccccc1)NC(=O)[C@H](Cc1ccc(Cl)cc1)NC(=O)c1cccnc1)C(=O)N[C@@H](Cc1c[nH]c2ccccc12)C(N)=O` (stereo in doubt), the half-maximal effective concentration (EC50) on Melanocortin receptor 4 came out at 0.021 µM; in assay [2], 0.577 µM; at Melanocortin receptor 3 it was 0.313 µM. Besides, the figures for the Ratio in assay [1] and in assay [3] were 28 and 15, respectively.

In the case of `N=C(N)NCCC[C@H](NC(=O)C(Cc1ccccc1)NC(=O)[C@H](Cc1ccc(Cl)cc1)NC(=O)C1CC1)C(=O)N[C@@H](Cc1c[nH]c2ccccc12)C(N)=O` (stereo in doubt), the 50% effective concentration (EC50) was determined as 0.0385 µM at Melanocortin receptor 4, 0.536 µM in assay [2] and 0.473 µM at Melanocortin receptor 3. The Ratio in assay [1] is 14; in assay [3], 12.

In the case of `N=C(N)NCCC[C@H](NC(=O)C(Cc1ccccc1)NC(=O)[C@H](Cc1ccc(Cl)cc1)NC(=O)c1ccccc1)C(=O)N[C@@H](Cc1c[nH]c2ccccc12)C(N)=O` (stereo in doubt), the EC50 at Melanocortin receptor 4 is 0.135 µM; in assay [2], 0.7 µM; on Melanocortin receptor 3 it was 0.556 µM. Also, the values for the Ratio in assay [1] and in assay [3] were 5 and 4, respectively.

For the compound `C=CCNC(=O)N[C@@H](Cc1ccc(Cl)cc1)C(=O)NC(Cc1ccccc1)C(=O)N[C@@H](CCCNC(=N)N)C(=O)N[C@@H](Cc1c[nH]c2ccccc12)C(N)=O` (stereo in doubt), the EC50 at Melanocortin receptor 4 worked out at 0.012 µM; in assay [2], 0.505 µM; at Melanocortin receptor 3, 0.045 µM. Further, the Ratio amounted to 42 in assay [1] and 4 in assay [3].

Regarding `N=C(N)NCCC[C@H](NC(=O)C(Cc1ccccc1)NC(=O)[C@H](Cc1ccc(Cl)cc1)NC(=O)CCc1ccccc1)C(=O)N[C@@H](Cc1c[nH]c2ccccc12)C(N)=O` (stereo in doubt), the EC50 came out at 0.121 µM at Melanocortin receptor 4, 0.442 µM in assay [2] and 0.17 µM at Melanocortin receptor 3. For the same compound, the results for the Ratio in assay [1] and in assay [3] were 4 and 1, respectively.

`CC(C)(C)C(=O)N[C@@H](Cc1ccc(Cl)cc1)C(=O)NC(Cc1ccccc1)C(=O)N[C@@H](CCCN=C(N)N)C(=O)N[C@@H](Cc1c[nH]c2ccccc12)C(N)=O` (stereo in doubt): the results for the EC50 (at Melanocortin receptor 4; in assay [2]; on Melanocortin receptor 3) were 0.0237 µM, 0.381 µM and 0.145 µM, respectively. In addition, the Ratio in assay [1] was determined as 16; in assay [3] it was 6.

For the compound `N=C(N)NCCC[C@H](NC(=O)C(Cc1ccccc1)NC(=O)[C@H](Cc1ccc(Cl)cc1)NC(=O)c1ccccn1)C(=O)N[C@@H](Cc1c[nH]c2ccccc12)C(N)=O` (stereo in doubt), the EC50 on Melanocortin receptor 4 was 0.0313 µM; in assay [2], 0.947 µM; on Melanocortin receptor 3, 0.452 µM. In addition, the Ratio in assay [1] worked out at 30; in assay [3], 14.

`CCOC(=O)N[C@@H](Cc1ccc(Cl)cc1)C(=O)NC(Cc1ccccc1)C(=O)N[C@@H](CCCN=C(N)N)C(=O)N[C@@H](Cc1c[nH]c2ccccc12)C(N)=O` (stereo in doubt): the figures for the EC50 (at Melanocortin receptor 4; in assay [2]; at Melanocortin receptor 3) were 0.035 µM, 0.211 µM and 3.08 µM, respectively. In addition, the Ratio in assay [1] amounted to 6; in assay [3], 88.

On to `N=C(N)NCCC[C@H](NC(=O)C(Cc1ccccc1)NC(=O)[C@H](Cc1ccc(Cl)cc1)NC(=O)CCCCc1ccccc1)C(=O)N[C@@H](Cc1c[nH]c2ccccc12)C(N)=O` (stereo in doubt), for which the EC50 at Melanocortin receptor 4 is 0.045 µM; in assay [2], 0.144 µM; at Melanocortin receptor 3, 0.0345 µM. In addition, the Ratio in assay [1] turned out to be 3; in assay [3] it was 1.

In the case of `COP(=S)(N[C@@H](Cc1ccc(Cl)cc1)C(=O)NC(Cc1ccccc1)C(=O)N[C@@H](CCCN=C(N)N)C(=O)N[C@@H](Cc1c[nH]c2ccccc12)C(N)=O)OC` (stereo in doubt), the EC50 on Melanocortin receptor 4 came to 0.446 µM; in assay [2] it was 1.89 µM; on Melanocortin receptor 3, 1.6 µM. Moreover, the Ratio in assay [1] and in assay [3] was 4 in each case.

Consider `N=C(N)NCCC[C@H](NC(=O)C(Cc1ccccc1)NC(=O)[C@H](Cc1ccc(Cl)cc1)NC(=O)CCC(=O)c1cc(F)cc(F)c1)C(=O)N[C@@H](Cc1c[nH]c2ccccc12)C(N)=O` (stereo in doubt), for which the 50% effective concentration (EC50) on Melanocortin receptor 4 amounted to 0.096 µM; in assay [2], 0.041 µM; at Melanocortin receptor 3, 0.14 µM. The Ratio in assay [1] is 0.4; in assay [3], 1.5.

`N=C(N)NCCC[C@H](NC(=O)C(Cc1ccccc1)NC(=O)[C@H](Cc1ccc(Cl)cc1)NC(=O)CCCC(=O)c1ccccc1)C(=O)N[C@@H](Cc1c[nH]c2ccccc12)C(N)=O` (stereo in doubt): the 50% effective concentration (EC50) came to 0.058 µM at Melanocortin receptor 4, 0.023 µM in assay [2] and 0.041 µM at Melanocortin receptor 3. The Ratio was determined as 0.4 in assay [1] and 0.7 in assay [3].

With `N=C(N)NCCC[C@H](NC(=O)C(Cc1ccccc1)NC(=O)[C@H](Cc1ccc(Cl)cc1)NC(=O)CCCc1ccccc1)C(=O)N[C@@H](Cc1c[nH]c2ccccc12)C(N)=O` (stereo in doubt), the EC50 on Melanocortin receptor 4 came to 0.082 µM; in assay [2], 0.113 µM; on Melanocortin receptor 3, 0.207 µM. For the same compound, the Ratio in assay [1] stood at 1; in assay [3] it was 3.

`CC(=O)N[C@@H](Cc1c[nH]cn1)C(=O)NC(Cc1ccccc1)C(=O)NC(Cc1ccccc1)C(=O)N[C@@H](CCCN=C(N)N)C(=O)N[C@@H](Cc1c[nH]c2ccccc12)C(N)=O` (stereo in doubt): the values for the concentration for a half-maximal effect (EC50) (on Melanocortin receptor 4; in assay [2]; at Melanocortin receptor 3) were 0.0595 µM, 0.013 µM and 0.17 µM, respectively. In addition, the Ratio in assay [1] was 0.1; in assay [3], 0.7.

(Values after ChEMBL document CHEMBL1137864, “End-capping of the modified melanocortin tetrapeptide (p-Cl)Phe-D-Phe-Arg-Trp-NH2 as a route to hMC4R agonists” (Bioorg Med Chem Lett, 2004).)
